Experimental data as given in patent US12240859B2, “Turbinmicin compounds, compositions and uses thereof” (Wisconsin Alumni Research Foundation, priority 2019, dated 2025).
Converted amounts (≈) assume the structure as drawn. Like-named read-outs stand apart in the source and are kept apart here. *1 amine or outer side, *2 acyl side, *3 side chain or, on linkers, in order; H or OH if unused. Where a SMILES comes first, the peptide text is derived from it. Bridges are numbered along the chain shown (N, C = ends). [ ]: non-standard residue; d: D form. The star is where a group is joined. hTyr(3S-OH,4S-OH,3'-OSO3H) = N[C@H](C(=O)O)[C@H](O)[C@@H](O)c1ccc(O)c(OS(=O)(=O)O)c1; Orn(4R-OH,5R-OH) = O=C([C@H](C[C@@H](O)[C@@H](O)N[*:3])N[*:1])[*:2]; Pro(3S-OH,4S-Me) = C[C@H]1CN[C@H](C(=O)O)[C@H]1O; X1 = CCCCCOc1ccc(-c2cc(-c3ccc(C(=O)*)cc3)no2)cc1; Gln(3R-OH) = NC(=O)C[C@@H](O)[C@H](N)C(=O)O; Hyp = O=C(O)[C@@H]1C[C@@H](O)CN1

Tests used:
C. albicans = experiment: In vitro MIC susceptibility testing, broth microdilution; assay type: cell-based, Candida albicans
Method: (§1) In vitro MIC susceptibility testing. […]. Amphotericin B was used as a positive control and the MICs range were 0.25-1.5 μg/mL. Six untreated media controls were included on each plate. The plates were incubated at 33° C. for 72 h. The MICs were determined as the lowest concentration that inhibited visible growth. The MICs were read at 24, 48, and 72 hours, respectively. […]

C. auris = experiment: as above; assay type: cell-based, Candida auris; parameters: unit: ug/mL
Method: as §1

[1] = test system: five Candida isolates, C. albicans K-1, C. tropicalis 98-234, C. auris B 11211, C. glabrata 4720, C. albicans SN 250; experiment: In vitro MIC susceptibility testing, positive control over the Candida isolates; assay type: cell-based; details: RPMI medium
Method: as §1

Aspergillus fumigatus = experiment: In vitro MIC susceptibility testing; assay type: cell-based
Method: as §1

A. fumigatus F11628 = details: same Cyp51 mutant A. fumigatus strain, comparison; cited from earlier work
C. tropicalis = experiment: In vitro MIC susceptibility testing, broth microdilution; assay type: cell-based; details: Candida tropicalis, strain 98-234; read-out: MIC
Method: In vitro MIC susceptibility testing. […] The plates were incubated at 33° C. for 72 h. The MICs were determined as the lowest concentration that inhibited visible growth. The MICs were read at 24, 48, and 72 hours, respectively.

C. glabrata = experiment: as above; assay type: cell-based, Candida glabrata; details: Nakaseomyces glabratus
Method: as §1

[2] = Candida albicans, strain 98-17, read-out: MIC
[3] = Candida albicans, strain 98-210, read-out: MIC
[4] = Candida albicans, strain 580, read-out: MIC
[5] = Candida albicans, strain K1 (K-1), read-out: MIC
[6] = Candidozyma auris, strain B11211, resistant to amphotericin B, fluconazole, micafungin, read-out: MIC
[7] = Candidozyma auris, strain B11220, read-out: MIC
[8] = Candidozyma auris, strain B11785, read-out: MIC
[9] = Candidozyma auris, strain B11799, read-out: MIC
[10] = Candidozyma auris, strain B11801, read-out: MIC
[11] = Candidozyma auris, strain B11804, read-out: MIC
[12] = positive controls, A. fumigatus F11628, read-out: MIC
[13] = Candidozyma auris, strain B11104
[14] = Candidozyma auris, strain B11203
[15] = Candidozyma auris, strain B11219
[16] = Candidozyma auris, strain B11221

## C[C@@H]1[C@H](O)[C@@H](C)/C=C/C=C/C=C/C=C/C=C/C=C/C=C/[C@H](O[C@@H]2O[C@H](C)[C@@H](O)[C@H](N)[C@@H]2O)C[C@@H]2O[C@](O)(C[C@@H](O)C[C@@H](O)[C@H](O)CC[C@@H](O)C[C@@H](O)CC(=O)O[C@H]1C)C[C@H](O)[C@H]2C(=O)O [Amphotericin B]
C. albicans; strain 98-17
  MIC: 0.25 µg/mL (≈ 0.271 µM)
C. albicans; strain K1 (K-1)
  MIC: 0.25 µg/mL (≈ 0.271 µM)
C. auris; strain B11104
  MIC: 1 µg/mL (≈ 1.08 µM)
C. auris; strain B11203
  MIC: 4 µg/mL (≈ 4.33 µM)
C. auris; strain B11211, resistant to amphotericin B, fluconazole, micafungin
  MIC: 1.5 µg/mL (≈ 1.62 µM)
C. auris; strain B11219
  MIC: 3 µg/mL (≈ 3.25 µM)
C. auris; strain B11220
  MIC: 0.38 µg/mL (≈ 0.411 µM)
C. auris; strain B11221
  MIC: 0.38 µg/mL (≈ 0.411 µM)
C. auris; strain B11785
  MIC: 1.5 µg/mL (≈ 1.62 µM)
C. auris; strain B11799
  MIC: 0.5 µg/mL (≈ 0.541 µM)
C. auris; strain B11801
  MIC: 6 µg/mL (≈ 6.49 µM)
C. auris; strain B11804
  MIC: 0.5 µg/mL (≈ 0.541 µM)
[1]
  MICs range: 0.25 to 1.5 µg/mL

## CC[C@@H]([C@H](C)O)n1ncn(-c2ccc(N3CCN(c4ccc(OC[C@@H]5CO[C@@](Cn6cncn6)(c6ccc(F)cc6F)C5)cc4)CC3)cc2)c1=O [Posaconazole, posaconazole]
C. albicans; [2]
  MIC: 0.12 µg/mL (≈ 0.171 µM)
C. albicans; [3]
  MIC: 0.12 µg/mL (≈ 0.171 µM)
C. albicans; [4]
  MIC: 0.06 µg/mL (≈ 0.0856 µM)
C. albicans; [5]
  MIC: 0.03 µg/mL (≈ 0.0428 µM)
C. auris; Candidozyma auris, strain B11104, read-out: MIC
  MIC: 0.5 µg/mL (≈ 0.713 µM)
C. auris; Candidozyma auris, strain B11203, read-out: MIC
  MIC: 0.12 µg/mL (≈ 0.171 µM)
C. auris; [6]
  MIC: 0.5 µg/mL (≈ 0.713 µM)
C. auris; Candidozyma auris, strain B11219, read-out: MIC
  MIC: 0.5 µg/mL (≈ 0.713 µM)
C. auris; [7]
  MIC: 0.06 µg/mL (≈ 0.0856 µM)
C. auris; Candidozyma auris, strain B11221, read-out: MIC
  MIC: 0.5 µg/mL (≈ 0.713 µM)
C. auris; [8]
  MIC: 0.016 µg/mL (≈ 0.0228 µM)
C. auris; [9]
  MIC: 0.06 µg/mL (≈ 0.0856 µM)
C. auris; [10]
  MIC: 0.12 µg/mL (≈ 0.171 µM)
C. auris; [11]
  MIC: 0.03 µg/mL (≈ 0.0428 µM)
Aspergillus fumigatus; [12]
  MIC: 8 µg/mL (≈ 11.4 µM)
Aspergillus fumigatus; strain 293, read-out: MIC
  MIC: 0.5 µg/mL (≈ 0.713 µM)
Aspergillus fumigatus; strain F14532, Cyp51 M220T
  MIC: 1 µg/mL (≈ 1.43 µM)
Aspergillus fumigatus; strain F16216, Cyp51 L98H + TR
  MIC: 2 µg/mL
A. fumigatus F11628
  dose required to achieve 1-log kill: 150 mg/kg/24 h

## OC(Cn1cncn1)(Cn1cncn1)c1ccc(F)cc1F [Fluconzole, fluconazole]
C. albicans; [2]
  MIC: 16 µg/mL (≈ 52.2 µM)
C. albicans; [3]
  MIC: 16 µg/mL (≈ 52.2 µM)
C. albicans; [4]
  MIC: 4 µg/mL (≈ 13.1 µM)
C. albicans; [5]
  MIC: 0.5 µg/mL (≈ 1.63 µM)
C. tropicalis
  MIC: 32 µg/mL (≈ 104 µM)
C. auris; [13]
  MIC: > 256 µg/mL
C. auris; [14]
  MIC: 256 µg/mL (≈ 836 µM)
C. auris; [6]
  MIC: > 256 µg/mL
C. auris; [15]
  MIC: > 256 µg/mL
C. auris; [7]
  MIC: 4 µg/mL (≈ 13.1 µM)
C. auris; [16]
  MIC: 128 µg/mL (≈ 418 µM)
C. auris; [8]
  MIC: 8 µg/mL (≈ 26.1 µM)
C. auris; [9]
  MIC: 16 µg/mL (≈ 52.2 µM)
C. auris; [10]
  MIC: 16 µg/mL (≈ 52.2 µM)
C. auris; [11]
  MIC: 2 µg/mL (≈ 6.53 µM)

## CCCCCOc1ccc(-c2cc(-c3ccc(C(=O)N[C@H]4C[C@@H](O)[C@@H](O)NC(=O)[C@@H]5[C@@H](O)[C@@H](C)CN5C(=O)[C@H]([C@H](O)CC(N)=O)NC(=O)[C@H]([C@H](O)[C@@H](O)c5ccc(O)c(OS(=O)(=O)O)c5)NC(=O)[C@@H]5C[C@@H](O)CN5C(=O)[C@H]([C@@H](C)O)NC4=O)cc3)no2)cc1 [Micafungin, micafungin] (X1-[Orn(4R-OH,5R-OH)]T[Hyp][hTyr(3S-OH,4S-OH,3'-OSO3H)][Gln(3R-OH)][Pro(3S-OH,4S-Me)]; lactam 1-C)
C. albicans; Candida albicans, strain 98-17
  MIC: 0.06 µg/mL (≈ 0.0472 µM)
C. albicans; Candida albicans, strain 98-210
  MIC: 0.03 µg/mL (≈ 0.0236 µM)
C. albicans; Candida albicans, strain 580
  MIC: 0.016 µg/mL (≈ 0.0126 µM)
C. albicans; Candida albicans, strain K1 (K-1)
  MIC: 0.03 µg/mL (≈ 0.0236 µM)
C. glabrata; strain 513
  MIC: 0.016 µg/mL (≈ 0.0126 µM)
C. glabrata; strain 729, Fks2_HS1_S663P
  MIC: 8 µg/mL (≈ 6.3 µM)
C. glabrata; strain 4720, Fks2_HS1_S645P, echinocandin resistant
  MIC: 4 µg/mL (≈ 3.15 µM)
C. glabrata; strain 5592
  MIC: 0.016 µg/mL (≈ 0.0126 µM)
C. glabrata; strain 14378, Fks1_HS1_S629P
  MIC: 2 µg/mL (≈ 1.57 µM)
C. auris; [13]
  MIC: 0.25 µg/mL (≈ 0.197 µM)
C. auris; [14]
  MIC: 0.25 µg/mL (≈ 0.197 µM)
C. auris; Candidozyma auris, strain B11211, resistant to amphotericin B, fluconazole, micafungin
  MIC: 4 µg/mL (≈ 3.15 µM)
C. auris; [15]
  MIC: 4 µg/mL (≈ 3.15 µM)
C. auris; Candidozyma auris, strain B11220
  MIC: 0.12 µg/mL (≈ 0.0945 µM)
C. auris; [16]
  MIC: 1 µg/mL (≈ 0.787 µM)
C. auris; Candidozyma auris, strain B11785
  MIC: 0.5 µg/mL (≈ 0.394 µM)
C. auris; Candidozyma auris, strain B11799
  MIC: 2 µg/mL (≈ 1.57 µM)
C. auris; Candidozyma auris, strain B11801
  MIC: 1 µg/mL (≈ 0.787 µM)
C. auris; Candidozyma auris, strain B11804
  MIC: 0.5 µg/mL (≈ 0.394 µM)

## C[C@@H](c1nc(-c2ccc(C#N)cc2)cs1)[C@](O)(Cn1cncn1)c1cc(F)ccc1F [Isavuconazole]
Aspergillus fumigatus; [12]
  MIC: 8 µg/mL (≈ 18.3 µM)
